Test results reported in paper PMC5877439 (British Journal of Cancer, 2018).

Assays:
[1] = Plasma MK-0752 PK analysis; format: in vivo, human
[2] = Tumour MK-0752 concentration in biopsies; format: in vivo, human; conditions: between the 1500 and 2100 mg doses; data limited
[3] = Safety, tolerability, DLT and MTD; format: in vivo, human
Notch signalling = assay: Notch signature score in plucked hair follicles; format: in vivo, human; conditions: number of samples limited
[4] = ref Krop et al, 2012, cited from earlier work

## O=C(O)CC[C@H]1CC[C@@](c2cc(F)ccc2F)(S(=O)(=O)c2ccc(Cl)cc2)CC1 [MK-0752]
[1]; 1200-2400 mg once weekly
  MK-0752 plasma exposure across the dose groups: no increment in exposure beyond the RP2D single-agent dose (1800 mg weekly)
[1]; day 1 (MK-0752+gemcitabine) vs day -7 (MK-0752 alone), 40 patients
  Plasma MK-0752 exposure (AUC0-t) and Cmax, effect of gemcitabine: did not appear to be affected by the addition of gemcitabine
[2]
  Tumour MK-0752 concentration across doses: no increment
[3]; p.o. once weekly, with gemcitabine 1000 mg m^-2
  MTD / RP2D of MK-0752 in combination with gemcitabine: 1800 mg
Notch signalling
  Relationship between MK-0752 dose and fold-change in Notch score: no relationship
[4]; phase I studies of MK-0752 alone
  Drug exposure with dose, single agent: no significant increase in drug exposure between 1800 mg and 3200 mg
[4]; single-agent studies
  Recommended dose for phase II evaluation (RP2D), single agent: 1800 mg
[4]; weekly schedule, MK-0752 alone
  Maximum tolerated dose (MTD), single agent: 3200 mg

## Nc1ccn([C@@H]2O[C@H](CO)[C@@H](O)C2(F)F)c(=O)n1 [gemcitabine, 2′,2′,-difluoro-2′,-deoxycytidine, reference compound]
[3]; i.v. days 1, 8 and 15 of 28 day cycle, with MK-0752 1800 mg
  MTD / RP2D of gemcitabine in combination with MK-0752: 1000 mg m^-2
